Laboratory results: US20210252120A1, “IMMUNOTHERAPY FOR CANCER” (SOTIO A.S., priority 2016, published 2021)

Legend:
[1] = test system: CD8^+ T cells; assay: Proliferation of CD8+ T cells (Ki67+ staining, flow cytometry) in tumor cell suspensions incubated with IL-15; type: cell-based, human
Description: (§1) Tumoral (Tu) and non-tumoral tissue (NTu) were obtained from 82 NSCLC patients undergoing neoadjuvant surgery. The characteristics of NSCLC patients are depicted in Table 2. Tissue samples obtained at the day of surgery were chopped into small pieces and incubated with agitation in RMPI 1640 medium (Gibco) with 100 ng/ml DNAse I and 20 ng/ml Collagenase D (both from Roche) for 45 minutes at 37° C. The cell suspension was then passed through the 100 μm strainer into 50 ml falcon tubes to obtain single cell suspensions. The infiltrated immune cell populations were analyzed by flow cytometry immediately after staining with specific antibodies for 30 min at 4° C. as described below. For further stimulation lymphocytes were counted and seeded into 96-well plates at the concentration of 1×10^6 lymphocytes/nil in RPMI-1640 medium supplemented with 10% heat-inactivated fetal bovine serum (PAA), 2 mM GlutaMAX I CTS (Gibco) and 100 U/ml penicillin+[…] streptomycin (Gibco). Cells were stimulated with 50 ng/ml PMA and 10 ng/ml ionomycin (both from Sigma-Aldrich) for 1 h at 37° C. before Brefeldin A (BioLegend, 1000×) was added for 3 h to detect intracellular IFN-γ in CD8^+ and CD4^+ T cells. In some experiments recombinant IL-15 (Peprotech, 13 ng/ml) was added to the cell culture and the proliferating CD8^+ T cells and NK cells were detected by flow cytometry after 3 and 7 days of incubation at 37° C. Cell viability was detected by DAPI (Thermo Fisher Scientific) or by LIVE/DEAD® Fixable Aqua Dead Cell Stain Kit 405 nm excitation (Invitrogen).
(§2) Cells were stained extracellularly with the mixture of appropriate antibody in PBS for 30 min at 4° C. For intracellular staining of IFN-γ, Foxp3, CD3 and Ki-67 the cells were fixed for 30 min using Fixation Buffer (eBioscience), permeabilized with Permeabilization Buffer (eBioscience) and stained intracellularly for 30 min at 4° C. Cells were washed with PBS and analyzed by LSRFortessa (BD Biosciences). Data were analyzed with FlowJo software (Tree Star). Flow cytometry data may be expressed as mean fluorescent intensity (MFI).
(§3) As PMA and ionomycin represent strong unspecific stimulation of immune cells, IL-15 was used to activate predominantly NK cells and CD8^+ T cells, playing a major role in antitumor immunity. Tumor cell suspensions were incubated alone or with IL-15 for 7 days. The proliferation of CD8^+ T cells and NK cells was analyzed on Day 0, 3 and 7 by Ki67^+ staining followed by flow cytometry. Whereas 68% and 79% of T cells and NK cells, respectively, proliferated on Day 3 of incubation in AC tumors, only 23% and 8% of T cells and NK cells, respectively, proliferated in SCC tumors, confirming a higher immunosuppressive environment in SCC than AC tumors (see Table 6).

[2] = test system: NK cells (CD3^−CD56^+); assay: Proliferation of NK cells (Ki67+ staining, flow cytometry) in tumor cell suspensions incubated with IL-15; type: cell-based, human
Description: as §1, §2, §3

[3] = AC tumor cell suspension, Day 3, +IL-15
[4] = AC tumor cell suspension, Day 7, +IL-15
[5] = SCC tumor cell suspension, Day 3, +IL-15
[6] = SCC tumor cell suspension, Day 7, +IL-15

Substance: IL-15: recombinant IL-15 (Peprotech, 13 ng/ml) added to cell culture to activate predominantly NK cells and CD8+ T cells
- Ki67^+ cells from CD8^+ T cells [1, 3]: 68%
- Ki67^+ cells from CD8^+ T cells [1, 4]: 62%
- Ki67^+ cells from CD8^+ T cells [1, 5]: 23%
- Ki67^+ cells from CD8^+ T cells [1, 6]: 45%
- Ki67^+ cells from CD3^−CD56^+ T cells (NK cells) [2, 3]: 79%
- Ki67^+ cells from CD3^−CD56^+ T cells (NK cells) [2, 4]: 50%
- Ki67^+ cells from CD3^−CD56^+ T cells (NK cells) [2, 5]: 8%
- Ki67^+ cells from CD3^−CD56^+ T cells (NK cells) [2, 6]: 40%
